Patent US6867225B2, “Thiazole or oxazole derivatives which are useful in the treatment of cardiovascular and related diseases” (SmithKline Beecham Corporation, priority 2001, dated 2005)

Key:
Assay in all cases: Transient transfection (transactivation) assay in CV-1 cells, GAL4 chimera, SPAP reporter
Format in all cases: cell-based
hPPAR α = target: T1, hPPAR α (Homo sapiens, UniProt Q07869)
T1 construct: expressed in transfected cells; host or cells: CV-1 cells
T1 sequence (Q07869 239-466 limits assumed): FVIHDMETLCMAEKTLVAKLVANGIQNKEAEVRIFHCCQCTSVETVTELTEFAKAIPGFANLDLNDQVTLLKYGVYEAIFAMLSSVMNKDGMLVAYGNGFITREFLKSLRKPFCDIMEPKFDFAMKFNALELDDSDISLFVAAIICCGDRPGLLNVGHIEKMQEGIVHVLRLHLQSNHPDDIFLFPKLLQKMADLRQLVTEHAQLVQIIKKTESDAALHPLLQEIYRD
Source text: (§1) Compounds were screened for functional potency in transient transfection assays in CV-1 cells for their ability to activate the PPAR subtypes (transactivation assay). A previously established chimeric receptor system was utilized to allow comparison of the relative transcriptional activity of the receptor subtypes on the same target gene and to prevent endogenous receptor activation from complicating the interpretation of results. See, for example, Lehmann, J. M.; Moore, L. B.; Smith-Oliver, Oliver T. A.; Wilkison, W. O.; Willson, T. M.; Kliewer, S. A., An antidiabetic thiazolidinedione is a high affinity ligand for peroxisome proliferator-activated receptor gamma (PPAR gamma), J. Biol. Chem., 1995, 270, 12953-6. The ligand binding domains for murine and human PPAR alpha, PPAR gamma, and PPAR delta were each fused to the yeast transcription factor GAL4 DNA binding domain. CV-1 cells were transiently transfected with expression vectors for the respective PPAR chimera along with a reporter construct containing five copies of the GAL4 DNA binding site driving expression of secreted placental alkaline phosphatase (SPAP) and β-galactosidase. After 16 h, the medium was exchanged to DME medium supplemented with 10% delipidated fetal calf serum and the test compound at the appropriate concentration. After an additional 24 h, cell extracts were prepared and assayed for alkaline phosphatase and β-galactosidase activity. Alkaline phosphatase activity was corrected for transfection efficiency using the β-galactosidase activity as an internal standard (see, for example, Kliewer, S. A., et. al. Cell 83, 813-819 (1995)). Rosiglitazone (BRL 49653) was used as a positive control in the hPPAR gamma assay. The positive control in the hPPAR alpha assays was 2-(2-methyl-3-[3-{3-(4-cyclohexylamino)[6-(4-fluorophenylpiperazin-1-yl)][1,3,5]triazin-2-ylamino}propyl]phenylthio)-2-methylpropionic acid. The positive control for PPAR delta assays was 2-{2-methyl-4-[({4-methyl-2-{-{trifluoromethyl)phenyl]-1,3-thiazol-5-yl}methyl)sulfanyl]phenoxy}acetic acid.

hPPAR γ = target: T2, hPPAR γ (Homo sapiens, UniProt P37231)
T2 construct: expressed in transfected cells; host or cells: CV-1 cells
T2 sequence (P37231 238-503 limits assumed): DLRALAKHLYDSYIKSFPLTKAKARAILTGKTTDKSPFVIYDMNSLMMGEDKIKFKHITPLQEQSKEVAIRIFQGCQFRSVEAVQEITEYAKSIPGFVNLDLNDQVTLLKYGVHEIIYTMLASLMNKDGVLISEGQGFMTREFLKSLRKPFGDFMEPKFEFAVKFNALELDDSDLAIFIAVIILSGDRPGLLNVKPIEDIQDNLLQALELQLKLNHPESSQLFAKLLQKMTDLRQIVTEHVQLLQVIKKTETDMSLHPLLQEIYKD
Source text: as §1

hPPAR δ = target: T3, hPPAR δ (Homo sapiens, UniProt Q03181)
T3 construct: expressed in transfected cells; host or cells: CV-1 cells
T3 sequence (Q03181 211-439 limits assumed): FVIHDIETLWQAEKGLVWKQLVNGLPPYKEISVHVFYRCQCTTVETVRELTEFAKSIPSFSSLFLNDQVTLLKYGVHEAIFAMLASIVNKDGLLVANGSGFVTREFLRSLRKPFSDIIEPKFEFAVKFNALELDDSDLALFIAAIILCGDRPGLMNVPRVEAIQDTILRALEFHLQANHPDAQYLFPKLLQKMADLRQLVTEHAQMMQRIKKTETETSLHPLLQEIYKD
Source text: as §1

In the case of `Cc1nc(-c2ccc(C(F)(F)F)cc2)sc1C(=O)NC1CCCc2cc(OC(C)(C)C(=O)O)ccc21` (stereo not drawn) [Example 4], the EC50 (hPPAR α) is reported as 0.01 µM, the EC50 (hPPAR γ) is reported as 2.22 µM and the EC50 (hPPAR δ) is reported as 8.6 µM.
